According to PubChem BioAssay (NCI):
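Each compound was tested at five concentrations against cells in 96-well plates for 48 hours. GI50 marks 50% less growth. TGI marks complete inhibition of growth.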

Key:
Experiment in all cases: NCI tumour cell line growth inhibition, 48 h
786-0 renal = system: 786-0 renal
A498 renal = system: A498 renal
COLO 205 colon = system: COLO 205 colon
KM12 colon = system: KM12 colon
NCI-H226 lung = system: NCI-H226 lung
OVCAR-5 ovarian = system: OVCAR-5 ovarian
OVCAR-8 ovarian = system: OVCAR-8 ovarian
SF-539 CNS = system: SF-539 CNS
SK-MEL-28 melanoma = system: SK-MEL-28 melanoma
UACC-62 melanoma = system: UACC-62 melanoma

Row | SMILES | GI50 (786-0 renal) [µM] | TGI (786-0 renal) [µM] | GI50 (A498 renal) [µM] | TGI (A498 renal) [µM] | GI50 (COLO 205 colon) [µM] | TGI (COLO 205 colon) [µM] | GI50 (KM12 colon) [µM] | TGI (KM12 colon) [µM] | GI50 (NCI-H226 lung) [µM] | TGI (NCI-H226 lung) [µM] | GI50 (OVCAR-5 ovarian) [µM] | TGI (OVCAR-5 ovarian) [µM] | GI50 (OVCAR-8 ovarian) [µM] | TGI (OVCAR-8 ovarian) [µM] | GI50 (SF-539 CNS) [µM] | TGI (SF-539 CNS) [µM] | GI50 (SK-MEL-28 melanoma) [µM] | TGI (SK-MEL-28 melanoma) [µM] | GI50 (UACC-62 melanoma) [µM] | TGI (UACC-62 melanoma) [µM]
1 | C[C@H]1[C@H](C)CC[C@]2(C(=O)O)CC[C@]3(C)C(=CC[C@@H]4[C@@]5(C)C/C(=C/c6ccco6)C(=O)C(C)(C)[C@@H]5CC[C@]43C)[C@H]12 | 4.09 | 19.1 | 11.5 | 33.8 | 3.6 | 15.1 | 3.82 | 15.6 | 4.36 | 23.2 | 7.59 | 21 | 4.63 | 24.1 | 4.67 | 16.8 | 4.81 | 17.5 | 2.86 | 13
2 | CCCCCCCC[N+](C)(CCCCCCCC)CCCCCCCC | 0.345 | 1.3 | 0.563 | 1.54 | 0.169 | 0.361 | 0.213 | 0.575 | 0.406 | 1.49 | 0.621 | 1.98 | 0.411 | 1.46 | 0.513 | 1.66 | 0.528 | 1.79 | 0.302 | 1.32
3 | NS(=O)(=O)c1ccc(N2N=C3c4ccccc4CC3C2c2ccc(Cl)cc2)cc1 (centres undefined) | 6.28 | 24.9 | 2.55 | 6.6 | 4.99 | > 100 | 5.54 | 49.8 | 10.9 | 38.7 | 15.9 | 56.5 | 11.8 | 33.4 | 9.07 | 30.8 | 10 | 28.7 | 5.97 | 22.7
4 | Cc1ccccc1C(C#N)C(=O)C(=O)Nc1cccc(Cl)c1 (centres undefined) |  | > 100 |  | > 100 |  | > 100 |  | > 100 |  | > 100 |  | > 100 |  | > 100 |  | > 100 |  | > 100 |  | > 100
5 | O=C(COc1ccccc1)NS(=O)(=O)c1ccccc1 |  | > 100 |  | > 100 |  | > 100 |  | > 100 |  | > 100 |  | > 100 |  | > 100 |  | > 100 |  | > 100 |  | > 100
6 | COc1ccc(/C=C2\CCC(C)(CN(C)C)C2=O)cc1 (centres undefined) |  | > 100 |  | > 100 |  | > 100 |  | > 100 |  | > 100 |  | > 100 |  | > 100 |  | > 100 |  | > 100 |  | > 100
7 | CC1=C(C(=O)NCc2ccccc2)C(c2ccccc2[N+](=O)[O-])C(C(=O)NCc2ccccc2)=C(C)N1 |  | 25.4 |  | 32.4 |  | 33.8 |  | 23.1 |  | 30.4 |  | 36.6 |  | 43.3 |  | 25.8 |  | 26 |  | 22.9
8 | COC(=O)C(Cl)=C1CC1 |  | 65.4 |  | > 100 |  | 38.3 |  | > 100 |  | > 100 |  | > 100 |  | 97.9 |  | 69.1 |  | 54.3 |  | > 100
9 | CC(C)(C)C(=O)C1CC(=O)c2ccccc2C1=O (centres undefined) |  | > 100 |  | 91.3 |  | > 100 |  | > 100 |  | > 100 |  | > 100 |  | > 100 |  | > 100 |  | 72.8 |  | > 100
10 | COc1ccccc1CNCCCN1C(=O)c2ccc3c4c(ccc(c24)C1=O)C(=O)N(CCCNCCCN)C3=O | 0.712 | 7.18 | 0.342 | 2.15 | 0.456 | 1.85 | 0.705 | 4.14 | 0.746 | 3.2 | 1.41 | 7.36 | 0.0735 | 2.83 | 0.968 | 2.82 | 0.74 | 2.7 | 0.653 | 2.17
11 | COc1ccc(NC(=O)c2sc3nc(C)c(C(O)c4ccccc4)cc3c2N)cc1 (centres undefined) | 4.63 | > 100 | 0.212 | 0.704 | 3.08 | 13.9 | 2 | 23.5 | 4.87 | > 100 | 4.74 | > 100 | 4.01 | > 100 | 2.24 | 6.65 | 6.93 | > 100 | 2.93 | > 100
12 | COC(=O)C1=C(C(=O)OC)C23C=C(C)C1C2=C(C)C1(CC1)[C@@](C)(O)C3=O (some centres undefined) | 0.323 | 3.05 | 0.188 | 0.49 | 0.35 | 1.62 | 0.868 | 11 | 0.438 | 3.07 | 0.365 | 8.89 | 0.359 | > 24.6 | 0.337 | 1.56 | 0.714 | 3.97 | 0.259 | 0.792
13 | Cc1ccc(S(=O)(=O)N2CCc3ccc(O)c4c3C2Cc2cc(Cl)ccc2-4)cc1 (centres undefined) | 2.3 | 9.59 | 0.234 | 2.13 | 8.12 | 26.2 | 1.18 | 4.21 | 2.63 | 8.4 | 2.02 | 16.5 | 1.21 | 5.83 | 0.792 | 2.83 | 1.68 | 5.84 | 0.962 | 3.77
14 | CCOC(=O)c1sc(=S)c2c(C(=O)OCC)c(C(=O)OCC)sc2c1C(=O)OCC | 20.4 | 44.5 | 18.2 | 33.9 | 27.6 | > 100 | 18.4 | 44.5 | 10.9 | 26.7 | 17.6 | 35.7 | 17.8 | 40 | 18.9 | 36.1 | 21.3 | 54.7 | 12.1 | 26.9
15 | CC(=O)N=c1ccc2nc3c(cc(N)c4ccccc43)oc-2c1 | 1.46 | 2.93 | 1.92 | 6.87 | 1.11 | 2.44 | 1.44 | 2.87 |  | > 39.1 | 1.8 | 3.94 | 1.31 | 3.6 | 1.63 | 3.05 | 1.75 | 3.26 | 1.41 | 2.72
16 | C[C@@]12CCC(=O)C=C1CC[C@H]1C2=CC[C@]2(C)C1CC[C@@]2(C)O (some centres undefined) |  | > 100 |  | > 100 |  | > 100 |  | > 100 |  | > 100 |  | > 100 |  | > 100 |  | > 100 |  | > 100 |  | > 100
17 | CC1=C(C(=O)Nc2ccc(Cl)c(Cl)c2)C(c2ccco2)C(C(=O)Nc2ccc(Cl)c(Cl)c2)=C(C)N1 |  | 25.8 |  | 26.6 |  | 25.7 |  | 27.3 |  | 25.6 |  | 29.3 |  | 24.3 |  | 27.7 |  | 25.3 |  | 26
18 | COc1ccc(-c2nc(-c3nc4ccc(OC)cc4[nH]3)cc3c2[nH]c2ccccc23)cc1 | 4.62 | > 100 | 3.34 | > 100 | 6.76 | > 100 | 2.57 | > 100 | 4.37 | > 100 | > 100 | > 100 | 1.04 | > 100 | 9.29 | > 100 | > 100 | > 100 | 2.75 | > 100
19 | N.N.NCCCCN.O=C([O-])C1(C(=O)[O-])CCC1.O=C([O-])C1(C(=O)[O-])CCC1.[Pt+4].[Pt+4] | > 100 | > 100 | > 100 | > 100 | > 100 | > 100 | > 100 | > 100 | > 100 | > 100 | > 100 | > 100 | > 100 | > 100 | > 100 | > 100 | > 100 | > 100 | 82.2 | > 100
20 | CCOC(=O)c1cn(Cc2ccccc2)c(=O)n1Cc1ccccc1 |  | > 100 |  | > 100 |  | > 100 |  | > 100 |  | > 100 |  | > 100 |  | > 100 |  | > 100 |  | > 100 |  | > 100
21 | COc1cc(C(=O)c2cc3c(cc2C)OCO3)cc(OC)c1OC | 0.322 | > 100 | 0.0322 | 0.199 | 0.0584 | 0.413 | 0.07 | > 100 | 0.554 | > 100 | 0.439 | > 100 | 0.317 | > 100 | 0.0617 | 0.376 | 0.0879 | > 100 | 0.247 | > 100
22 | COc1ccc2c(c1)CC[C@@H]1[C@@H]2CC[C@]2(C)C(c3ccco3)=C(C=O)C[C@@H]12 | 23.1 | 55.5 | 26.1 | 64.8 | 3.58 | > 100 | 3.35 | 12.2 | 21.6 | 63.5 | 30.5 | 94.1 | 31.1 | 74.2 | 20 | 40.6 | 15.8 | > 100 | 3.82 | 16.3
23 | COc1ccc(/C=C/c2n[nH]c3ccc(N4CCOC4=O)cc23)cc1 | 3.76 | > 100 | 3.57 | 7.01 | 0.501 | 3.05 | 1.02 | 27.1 | 2.44 | 15.4 | 3.16 | 59.8 | 2.31 | > 100 | 0.99 | 3.33 | 3.39 | 12.4 | 2.6 | 6.83
24 | Nc1nc2nc[nH]c2c(=O)[nH]1 |  | > 100 |  | > 100 |  | > 100 |  | > 100 |  | > 100 |  | > 100 |  | > 100 |  | > 100 |  | > 100 |  | > 100
25 | CCCN(CCC)c1ccc(/C=N/NC(=O)c2cccnc2)c(Cl)c1 | 11.6 | 29.1 | 0.161 | 0.318 | 6.29 | 22.3 | 7.19 | 25.7 | 0.241 | 0.707 | 1.22 | 4.73 | 18.1 | 53.7 | 11.6 | 26.5 | 11.9 | 31.9 | 0.875 | 4.6
26 | Cc1cc(Cl)cc2c1NC(=O)C2(O)C(C)C(=O)c1ccc(Cl)cc1 (centres undefined) |  | > 100 |  | > 91.6 |  | > 100 |  | > 100 |  | > 100 |  | > 100 |  | > 100 |  | > 100 |  | > 100 |  | 44
27 | NCc1nnn(Cc2ccccc2)c1N |  | > 100 |  | > 100 |  | > 100 |  | > 100 |  | > 100 |  | > 100 |  | > 100 |  | > 100 |  | > 100 |  | > 100
28 | CCn1cnc2c(Nc3cccc(Cl)c3)nc(N[C@@H]3CCCC[C@@H]3N)nc21 | 1.83 | 5.05 | 1.9 | 3.93 | 1.19 | 2.6 | 0.733 | 2.67 | 2 | 5.95 | 1.81 | 7.92 | 2.35 | 9.53 | 1.42 | 2.8 | 1.68 | 3.42 | 1.49 | 3.59
29 | N#CCCN(c1ccc(-c2nnc(NC(=O)CNNC(=O)CC(=O)Nc3ccccc3)s2)cc1)S(=O)(=O)c1ccccc1 |  | > 100 |  | > 100 |  | > 100 |  | > 100 |  | > 100 |  | > 100 |  | > 100 |  | > 100 |  | > 100 |  | > 100
30 | COc1cc(-c2cc(-c3nc4ccc(Cl)cc4[nH]3)[nH]n2)cc(OC)c1OC | 5.32 | 18.3 | 2.1 | 11 | 3.18 | 10 | 3.45 | 10.6 | 1.88 | 7.23 | 12.1 | 30.2 | 2.26 | 5.59 | 4.66 | 18.3 | 2.42 | 7.11 | 1.97 | 4.95
